Broadly, the Ki is the dissociation constant of the complex between target and ligand, obtained from inhibition or displacement. Low readings indicate tighter binding, high ones weaker binding.

SMILES strings stand for the structures. Where only a bound is given, the exact number is not on record here.

Data on one compound can be found in patent US6835752B2, “Carboxylic acid derivatives, processes for the preparation thereof and pharmaceutical agents comprising the same as active ingredient” (Ono Pharmaceutical Co., Ltd., priority 2000, dated 2004).

Holding throughout (settings): CHO cell membrane fraction, competition with [3H]-PGE2 2.5 nM
Experiment [1] concerns the target T1, mouse EP1 receptor (Mus musculus, UniProt P35375).
T1 construct: expressed in transfected cells; host or cells: CHO cells
T1 sequence (P35375 1-405): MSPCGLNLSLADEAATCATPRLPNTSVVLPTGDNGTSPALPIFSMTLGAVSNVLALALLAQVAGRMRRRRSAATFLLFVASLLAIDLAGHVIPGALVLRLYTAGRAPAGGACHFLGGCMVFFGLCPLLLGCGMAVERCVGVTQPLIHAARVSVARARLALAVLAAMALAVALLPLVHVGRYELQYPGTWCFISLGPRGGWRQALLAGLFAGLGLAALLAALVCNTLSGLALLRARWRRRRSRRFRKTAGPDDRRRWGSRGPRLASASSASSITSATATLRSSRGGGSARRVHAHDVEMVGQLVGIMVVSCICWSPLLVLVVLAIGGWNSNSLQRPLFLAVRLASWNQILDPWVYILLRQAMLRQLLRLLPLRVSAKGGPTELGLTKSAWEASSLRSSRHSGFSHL
Nature of the experiment: Binding assay using cell expressing the prostanoid receptor subtypes (EP1). Here is the method:
(§1) (i) Binding Assay Using Cell Expressing the Prostanoid Receptor Subtypes
(§2) The preparation of membrane fraction was carried out according to the method of Sugimoto et al [J. Biol. Chemical, 267, 6463-6466 (1992)], using CHO cell expressing prostanoid receptor subtypes (mouse EP1, EP2, EP3α, and EP4).
(§3) The standard assay mixture containing membrane fraction (50 μL), [^3H]—PGE2 in a final volume of 150 μL was incubated for 1 hour at room temperature. The reaction was terminated by addition of 3 mL of ice-cold buffer. The mixture was rapidly filtered through a glass filter (GF/B) under reduced pressure. The radioactivities associated with the filters were measured by liquid scintillation counter.
(§4) Kd and Bmax values were determined from Scatchard plots [Ann. N. Y. Acad. Sci. 51, 660(1949)]. Non-specific binding was determined as the amount bound in the presence of an excess (2.5 μM of unlabeled PGE2. In the experiment for competition of specific [^3H]—PGE2 binding assay, [^3H]—PGE2, was added at a concentration of 2.5 nM and a test compound of the present invention was added at various concentrations. The following buffer was used in all reactions.
(§5) Buffer: 10 mM potassium phosphate (pH 6.0), 1 mM EDTA, 10 mM MgCl2, 0.1 M NaCl.
(§6) The inhibition constant (Ki) (μM) of each compound was calculated by the following equation.

The target in experiment [2] is T2, mouse EP3α receptor (Mus musculus, UniProt P30557).
T2 construct: expressed in transfected cells; host or cells: CHO cells
T2 sequence (P30557 1-365): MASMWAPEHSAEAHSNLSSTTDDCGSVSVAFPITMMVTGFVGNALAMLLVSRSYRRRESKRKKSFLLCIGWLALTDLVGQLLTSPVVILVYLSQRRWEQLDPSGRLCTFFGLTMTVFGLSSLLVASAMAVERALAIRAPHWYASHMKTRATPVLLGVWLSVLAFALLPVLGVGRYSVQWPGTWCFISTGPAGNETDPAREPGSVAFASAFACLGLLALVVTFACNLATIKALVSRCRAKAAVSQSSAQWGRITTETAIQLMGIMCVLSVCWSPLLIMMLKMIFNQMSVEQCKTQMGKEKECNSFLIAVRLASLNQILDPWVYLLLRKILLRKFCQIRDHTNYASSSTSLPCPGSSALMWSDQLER
Kind of experiment: Binding assay using cell expressing the prostanoid receptor subtypes (EP3). The method, then:
as §1, §2, §3, §4, §5, §6

In experiment [3] the target is T3, mouse EP2 receptor (Mus musculus, UniProt Q62053).
T3 construct: expressed in transfected cells; host or cells: CHO cells
T3 sequence (Q62053 whole entry): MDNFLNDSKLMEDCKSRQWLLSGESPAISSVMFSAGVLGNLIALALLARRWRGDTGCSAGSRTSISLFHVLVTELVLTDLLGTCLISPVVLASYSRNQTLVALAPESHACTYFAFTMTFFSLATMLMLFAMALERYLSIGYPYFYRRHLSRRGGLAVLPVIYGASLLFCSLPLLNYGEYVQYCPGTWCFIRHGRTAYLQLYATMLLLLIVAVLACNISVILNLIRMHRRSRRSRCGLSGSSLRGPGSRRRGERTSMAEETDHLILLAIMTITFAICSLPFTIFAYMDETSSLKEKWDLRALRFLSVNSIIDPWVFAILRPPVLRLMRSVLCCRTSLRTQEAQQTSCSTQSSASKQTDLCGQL
Kind of experiment: Binding assay using cell expressing the prostanoid receptor subtypes (EP2). The method, then:
as §1, §2, §3, §4, §5, §6

The target in experiment [4] is T4, mouse EP4 receptor (Mus musculus, UniProt P32240).
T4 construct: expressed in transfected cells; host or cells: CHO cells
T4 sequence (P32240 whole entry): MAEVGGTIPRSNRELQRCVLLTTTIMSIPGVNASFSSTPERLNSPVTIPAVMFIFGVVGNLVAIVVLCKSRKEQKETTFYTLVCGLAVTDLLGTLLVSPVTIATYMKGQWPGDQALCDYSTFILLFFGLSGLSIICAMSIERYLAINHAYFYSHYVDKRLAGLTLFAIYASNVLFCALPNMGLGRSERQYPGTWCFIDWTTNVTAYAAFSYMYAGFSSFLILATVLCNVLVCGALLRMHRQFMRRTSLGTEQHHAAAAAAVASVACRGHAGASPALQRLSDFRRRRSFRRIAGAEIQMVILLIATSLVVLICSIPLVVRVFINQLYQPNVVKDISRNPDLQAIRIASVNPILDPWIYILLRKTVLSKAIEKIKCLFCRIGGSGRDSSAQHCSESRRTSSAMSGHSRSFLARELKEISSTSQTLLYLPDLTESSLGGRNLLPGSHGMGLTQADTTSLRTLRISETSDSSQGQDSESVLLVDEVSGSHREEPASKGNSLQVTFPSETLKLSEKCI
Kind of experiment: Binding assay using cell expressing the prostanoid receptor subtypes (EP4). The method, then: as §1, §2, §3, §4, §5, §6

For `CC(C(=O)Nc1ccccc1CCCC(=O)O)c1cccc2ccccc12` (stereo not shown) [Example 2, 4-[2-[2-(1-naphthyl)propanoylamino]phenyl]butanoic acid], the inhibitory constant (Ki) in experiment [1] is > 10 µM; in experiment [2] it was 2.4 µM; in experiment [3], > 10 µM; in experiment [4], 0.3 µM.
